Results published in ChEMBL document CHEMBL1133933, “Imidazolopyrazinones as potential antioxidants” (Bioorg Med Chem Lett, 2001).

Assays:
[1] = Krel expressed as Ki with respect to Ktrolox
[2] = Reaction rate constant of the compound

| SMILES | Krel [1] | reaction rate constant [2] [M⁻¹ s⁻¹] |
| --- | --- | --- |
| Cc1nc2cnccn2c1O.Cl | 3.5 | 60000 |
| COc1ccc(-c2cn3c(O)c(Cc4ccc(O)cc4)nc3c(Cc3ccccc3)n2)cc1 | 5.6 | 96000 |
| Cl.Oc1c(Cc2ccccc2)nc2cnccn12 | 1.6 | 28000 |
| Cl.Oc1ccc(-c2cn3c(O)c(-c4ccccc4)nc3cn2)cc1 | 6.2 | 105000 |
| Cl.Oc1c(Cc2ccccc2)nc2cnc(-c3ccccc3)cn12 | 3.8 | 65000 |
| Cc1nc2cnc(-c3ccccc3)cn2c1O.Cl | 10 | 170000 |
| Cl.Oc1ccc(-c2cn3c(O)c(Cc4ccccc4)nc3cn2)cc1 | 1.9 | 33000 |
| Oc1ccc(Cc2nc3c(Cc4ccccc4)nc(-c4ccc(O)cc4)cn3c2O)cc1 [COELENTERAZINE] | 7.1 | 120000 |
| COc1ccc(-c2cn3c(O)c(C)nc3cn2)cc1.Cl | 16.5 | 280000 |
| Cc1c(C)c2c(c(C)c1O)CCC(C)(C(=O)O)O2 (stereo unspecified) [TROLOX] | 1 | 17000 |
| Cl.Oc1c(-c2ccccc2)nc2cnccn12 | 4.9 | 84000 |
| COc1ccc(-c2cn3c(O)c(Cc4ccccc4)nc3cn2)cc1.Cl | 9.4 | 160000 |
| Cc1nc2cnc(-c3ccc(O)cc3)cn2c1O.Cl | 12.3 | 210000 |
